Data on 48 molecules can be found in ChEMBL document CHEMBL3272267, “Synthesis and antiinflammatory and hypnotic activity of 5-alkoxy-3-(N-substituted carbamoyl)-1-phenylpyrazoles” (J Med Chem, 1977).

In one data set the test system is Rattus norvegicus. As to the kind of experiment: Antiinflammatory activity in Wistar rat assessed as inhibition of carrageenan-induced hind paw edema at 100 mg/kg, po administered as gum arabic suspension 30 mins prior to carrageenin injection measured 3 hrs post-carrageenin injection. It counts as functional. (In the carrageenan paw model, swelling and tenderness develop within hours.)

Another data set concerns Mus musculus. As to the kind of experiment: Hypnotic activity in ip dosed ddN mouse assessed as loss of righting reflex administered as gum arabic suspension measured within 60 mins. It counts as functional.
Data set [1] in a line: Acute toxicity in po dosed mouse. It counts as organism-based. Conditions: in vivo.

For the molecule `COc1cc(C(=O)N2CCCCC2)nn1-c1ccccc1`, the inhibition in vivo at 100 mg/kg with Rattus norvegicus amounted to 28.2%.
Still for that read-out and setting: the result for `COc1cc(C(N)=O)nn1-c1ccccc1` reads 34.3%; that for `CNC(=O)c1cc(OC)n(-c2ccccc2)n1`, 57.9%.
Regarding `COc1cc(C(=O)N(C)C)nn1-c1ccccc1`, the HD50 in the data set with Mus musculus worked out at 90 mg/kg. Besides, the LD50 in data set [1] came out at 385 mg/kg. Also, the inhibition in vivo at 100 mg/kg in the data set with Rattus norvegicus came out at 47.5%.
Turning to `CCCCNC(=O)c1cc(OC)n(-c2ccccc2)n1`, the inhibition in vivo at 100 mg/kg with Rattus norvegicus stood at 20.6%.
Same read-out and setting: the result for `COc1cc(C(=O)NC(C)C)nn1-c1ccccc1` reads 24.8%.
The same measure, in the same setting: the value for `COc1cc(C(=O)N2CCCC2)nn1-c1ccccc1` was 29.2%; that for `COc1cc(C(=O)N2CCOCC2)nn1-c1ccccc1` was 73.8%; that for `CCN(CC)CCNC(=O)c1cc(OC)n(-c2ccccc2)n1` was 54.1%.
The same measure, in the same setting: the result for `COc1cc(C(=O)N2CCN(C)CC2)nn1-c1ccccc1` reads 56.8%; that for `COc1cc(C(=O)N2CCN(CCO)CC2)nn1-c1ccccc1`, 10.3%.
With `COc1cc(C(=O)Nc2ccccc2C(=O)O)nn1-c1ccccc1`, the inhibition in vivo at 100 mg/kg in the data set with Rattus norvegicus worked out at 24.1%.
Still for that read-out and setting: the value for `COc1cc(C(=O)Nc2cccc(C(F)(F)F)c2)nn1-c1ccccc1` was 20.9%; that for `COc1cc(C(=O)N(C)c2ccc(C)cc2)nn1-c1ccccc1` was 22.3%.
On to `CCOc1cc(C(=O)N(C)C)nn1-c1ccccc1`, for which the HD50 in the data set on Mus musculus was 26 mg/kg. Moreover, the LD50 in data set [1] was 330 mg/kg. Besides, in the data set with Rattus norvegicus, the inhibition in vivo at 100 mg/kg turned out to be 65.8%.
For the molecule `CCOc1cc(C(=O)N2CCOCC2)nn1-c1ccccc1`, the inhibition in vivo at 100 mg/kg with Rattus norvegicus was 35.4%.
Regarding `CCCOc1cc(C(=O)N(C)C)nn1-c1ccccc1`, in the data set on Mus musculus, the HD50 turned out to be 27 mg/kg. Further, the LD50 in data set [1] came out at 320 mg/kg. Moreover, in the data set with Rattus norvegicus, the inhibition in vivo at 100 mg/kg is 26.2%.
The corresponding values for `CC(C)Oc1cc(C(=O)N(C)C)nn1-c1ccccc1` are 49 mg/kg, 525 mg/kg and 43.9%.
Regarding `CCCOc1cc(C(=O)N2CCOCC2)nn1-c1ccccc1`, the inhibition in vivo at 100 mg/kg in the data set on Rattus norvegicus came out at 23.5%.
`CCCCOc1cc(C(N)=O)nn1-c1ccccc1`: in the data set with Mus musculus, the HD50 was found to be 94 mg/kg. In addition, the LD50 in data set [1] came out at 360 mg/kg. Also, in the data set on Rattus norvegicus, the inhibition in vivo at 100 mg/kg stood at 26.5%.
The corresponding values for `CCCCOc1cc(C(=O)NC)nn1-c1ccccc1` are 48 mg/kg, 325 mg/kg and 65%.
Taken in the same sequence, the figures for `CCCCOc1cc(C(=O)NCC)nn1-c1ccccc1` were 44 mg/kg, 400 mg/kg and 0%.
Taken in the same sequence, the figures for `CCCCOc1cc(C(=O)N(C)C)nn1-c1ccccc1` were 33 mg/kg, 460 mg/kg and 18.7%.
With `C=CCNC(=O)c1cc(OCCCC)n(-c2ccccc2)n1`, the inhibition in vivo at 100 mg/kg with Rattus norvegicus came out at 4.4%.
As to `CCCCOc1cc(C(=O)NCCC)nn1-c1ccccc1`, in the data set on Mus musculus, the HD50 stood at 39 mg/kg. The molecule further returned an LD50 in data set [1] of 650 mg/kg. Besides, the inhibition in vivo at 100 mg/kg in the data set with Rattus norvegicus came to 51.2%.
`CCCCOc1cc(C(=O)NCCO)nn1-c1ccccc1`: the inhibition in vivo at 100 mg/kg in the data set with Rattus norvegicus is 61.2%.
For `CCCCNC(=O)c1cc(OCCCC)n(-c2ccccc2)n1`, in the data set with Mus musculus, the HD50 came to 70 mg/kg. The same molecule came in with an LD50 in data set [1] of 370 mg/kg. Moreover, the inhibition in vivo at 100 mg/kg with Rattus norvegicus was 43.3%.
As for `CCCCOc1cc(C(=O)N(CC)CC)nn1-c1ccccc1`, the inhibition in vivo at 100 mg/kg with Rattus norvegicus stood at 44.1%.
Same read-out and setting: the value for `CCCCOc1cc(C(=O)NC(C)C)nn1-c1ccccc1` was 15.8%; that for `CCCCOc1cc(C(=O)N2CCCC2)nn1-c1ccccc1` was 17.6%.
On the same count and under the same terms, the result for `CCCCOc1cc(C(=O)N2CCCCC2)nn1-c1ccccc1` reads 15.6%; that for `CCCCOc1cc(C(=O)N2CCOCC2)nn1-c1ccccc1`, 32.9%.
Still for that read-out and setting: the value for `CCCCOc1cc(C(=O)NCCN(CC)CC)nn1-c1ccccc1` was 23.6%; that for `CCCCOc1cc(C(=O)NCCCN(C)C)nn1-c1ccccc1` was 29.8%; that for `CCCCOc1cc(C(=O)N2CCN(C)CC2)nn1-c1ccccc1` was 32.3%.
On to `CCCCOc1cc(C(=O)N2CCN(CCO)CC2)nn1-c1ccccc1`, for which the inhibition in vivo at 100 mg/kg with Rattus norvegicus was determined as 41.3%.
The same measure, in the same setting: the result for `CCCCOc1cc(C(=O)Nc2ccccc2C(=O)O)nn1-c1ccccc1` reads 0%; that for `CCCCOc1cc(C(=O)N2CCN(C(=O)c3cc(OCCCC)n(-c4ccccc4)n3)CC2)nn1-c1ccccc1`, 0%.
As for `CCCCCOc1cc(C(=O)N(C)C)nn1-c1ccccc1`, the HD50 with Mus musculus was 63 mg/kg. Further, in data set [1], the LD50 turned out to be 420 mg/kg. The inhibition in vivo at 100 mg/kg with Rattus norvegicus came to 20%.
As for `CC(C)CCOc1cc(C(=O)N(C)C)nn1-c1ccccc1`, the HD50 in the data set with Mus musculus amounted to 47 mg/kg. The same molecule had an LD50 in data set [1] of 350 mg/kg. Besides, the inhibition in vivo at 100 mg/kg in the data set with Rattus norvegicus was 25.3%.
As to `CCCCOc1cc(C(=O)N(C)CCN(C)C)nn1-c1ccccc1`, the inhibition in vivo at 100 mg/kg with Rattus norvegicus is 28.2%.
On to `CCCCOc1cc(C(=O)N(C)CCN(CC)CC)nn1-c1ccccc1`, for which the inhibition in vivo at 100 mg/kg in the data set on Rattus norvegicus worked out at 29.5%.
On the same count and under the same terms, the value for `CCCCOc1cc(C(=O)N2CCN(CCOC(C)=O)CC2)nn1-c1ccccc1` was 43.9%; that for `CCCCOc1cc(C(=O)N2CCN(CCOC(=O)CC)CC2)nn1-c1ccccc1` was 0%.
Still for that read-out and setting: the result for `CCCCOc1cc(C(=O)N2CCN(CCOC(=O)c3ccccc3)CC2)nn1-c1ccccc1` reads 5.9%; that for `Cc1c(N(C)C)c(=O)n(-c2ccccc2)n1C` [AMINOPYRINE], 66%.
`CN1C(=O)NC(=O)C(C)(C2=CCCCC2)C1=O` (stereo not drawn) [HEXOBARBITAL]: the HD50 in the data set with Mus musculus came out at 91 mg/kg. The molecule further came in with an LD50 in data set [1] of 745 mg/kg.
Take `CCCCC1C(=O)N(c2ccccc2)N(c2ccccc2)C1=O` [PHENYLBUTAZONE]: in the data set with Rattus norvegicus, the inhibition in vivo at 100 mg/kg turned out to be 54.5%.

The inhibition in vivo is the change of the read-out against control, counted positive when it falls. A word on the LD50: it is the dose at which mortality reaches 50%.
